From patent US9771369B2, “Compounds and methods for kinase modulation, and indications therefor” (Plexxikon Inc., priority 2014, dated 2017)

The compounds below were run against c-kit mutant D816V (Homo sapiens (Human), UniProt P10721, D816V/DEL694-753) (assay: c-Kit mutant D816V biochemical assay (AlphaScreen kinase activity)).
How it was run: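 Recombinant His-tagged c-Kit D816V kinase domain (residues 551-934, insert 694-753 deleted, E. coli-expressed) phosphorylating 30 nM biotin-(E4Y)10 with 10 μM ATP, HEPES pH 7.2, Mg/Mn, 5% DMSO; 30 min, room temperature. Phosphorylation detected by AlphaScreen (streptavidin donor/PY30 acceptor beads); IC50 from 8-point 1:3 series.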

c-kit mutant D816V, sequence (P10721 other isoform, or with tags, fused parts or gaps D816V/del 694-753): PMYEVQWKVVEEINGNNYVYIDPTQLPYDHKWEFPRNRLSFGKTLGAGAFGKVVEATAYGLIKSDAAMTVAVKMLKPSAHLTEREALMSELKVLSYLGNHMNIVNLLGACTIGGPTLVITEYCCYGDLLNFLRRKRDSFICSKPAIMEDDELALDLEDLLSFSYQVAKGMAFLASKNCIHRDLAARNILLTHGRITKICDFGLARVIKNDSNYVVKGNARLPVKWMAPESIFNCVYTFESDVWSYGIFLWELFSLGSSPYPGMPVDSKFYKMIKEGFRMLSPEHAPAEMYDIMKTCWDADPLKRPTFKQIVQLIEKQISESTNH

**Q.** Which IC50 does the source give for `CCOc1ccc(-c2[nH]c(C3(C)CCN(c4ncnc5[nH]c(-c6ccc(C(=O)NC)nc6)cc45)CC3)nc2C)cc1C` [P-3247, 5-[4-[4-[5-(4-ethoxy-3-methyl-phenyl)-4-methyl-1H-imidazol-2-yl]-4-methyl-1-piperidyl]-7H-pyrrolo[2,3-d]pyrimidin-6-yl]-N-methyl-pyridine-2-carb oxamide] here?
**A.** 0.0001 to 1 µM

**Q.** With `Cc1nc(C2(C)CCN(c3ncnc4[nH]c(-c5ccc(C(N)=O)cc5)cc34)CC2)[nH]c1-c1cccc(OC(F)F)c1` [P-3231, 4-[4-[4-[5-[3-(difluoromethoxy)phenyl]-4-methyl-1H-imidazol-2-yl]-4-methyl-1-piperidyl]-7H-pyrrolo[2,3-d]pyrimidin-6-yl]benzamide] as the compound, how does the IC50 read?
**A.** 0.0001 to 1 µM

**Q.** With `CCOc1ccc(-c2[nH]c(C3(C)CCN(c4ncnc5[nH]c(-c6ccc(OC)nc6)cc45)CC3)nc2C)cc1F` [P-3209, 4-[4-[5-(4-ethoxy-3-fluoro-phenyl)-4-methyl-1H-imidazol-2-yl]-4-methyl-1-piperidyl]-6-(6-methoxy-3-pyridyl)-7H-pyrrolo[2,3-d]pyrimidine] as the compound, how does the IC50 read?
**A.** 0.0001 to 1 µM

**Q.** Which IC50 does the source give for `CCOc1ccc(-c2[nH]c(C3(C)CCN(c4ncnc5[nH]c(-c6ccc(NS(C)(=O)=O)cc6)cc45)CC3)nc2C)cc1` [P-3230, N-[4-[4-[4-[5-(4-ethoxyphenyl)-4-methyl-1H-imidazol-2-yl]-4-methyl-1-piperidyl]-7H-pyrrolo[2,3-d]pyrimidin-6-yl]phenyl]methanesulfonamide] here?
**A.** 0.0001 to 1 µM
